According to patent US20260092061A1, “COMPOUNDS FOR TARGETED PROTEIN DEGRADATION” (Amphista Therapeutics Limited, priority 2022, published 2026):

Columns and labels:
[1] = biological target: T1, BRD9 (Homo sapiens, UniProt Q9H8M2); assay: BRD9 degradation, HiBiT-BRD9 KI HEK293 (LgBiT) cells, NanoGlo Lytic Endpoint assay (Assay Protocol 1); assay type: cell-based; details: BRD9 degradation; for Dmax at 1 µM / DC50: Table 2, Assay Protocol 1; for Dmax at 1 µM: 1 μM compound at 6 h of treatment, read-out: Assay 1 Dmax; for DC50: 6 h of treatment, read-out: Assay 1 DC50
T1 sequence (Q9H8M2 1-597): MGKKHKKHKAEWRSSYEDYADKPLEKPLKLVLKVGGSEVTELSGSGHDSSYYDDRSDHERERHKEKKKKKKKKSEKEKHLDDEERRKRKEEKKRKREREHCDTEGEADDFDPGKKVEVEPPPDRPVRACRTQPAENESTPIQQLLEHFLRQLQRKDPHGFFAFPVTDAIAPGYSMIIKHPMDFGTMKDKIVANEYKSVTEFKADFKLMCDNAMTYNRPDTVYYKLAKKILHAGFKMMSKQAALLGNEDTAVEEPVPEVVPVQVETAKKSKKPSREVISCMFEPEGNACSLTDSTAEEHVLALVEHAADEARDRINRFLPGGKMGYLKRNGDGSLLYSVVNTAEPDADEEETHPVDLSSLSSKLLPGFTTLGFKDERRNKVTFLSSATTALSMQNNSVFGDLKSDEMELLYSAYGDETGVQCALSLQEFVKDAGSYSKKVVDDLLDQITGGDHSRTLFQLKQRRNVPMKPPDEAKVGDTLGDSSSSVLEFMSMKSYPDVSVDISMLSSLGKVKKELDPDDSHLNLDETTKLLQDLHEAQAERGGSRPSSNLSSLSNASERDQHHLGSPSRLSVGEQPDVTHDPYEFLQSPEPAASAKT
Protocol: HiBiT-BRD9 KI HEK293 (LgBiT) Cells (Promega CS3023412) were seeded at 8000 cells per well (38 μL) in sterile white bottom 384 well plates (Invitrogen 164610 or Greiner 781080) and incubated overnight at 37° C. with 5% CO2. The next day, compounds were prepared at 1000× final concentration in DMSO and diluted 1:100 in media (DMEM PAN Biotech P04-03550+10% FBS ATCC 302025). 4 μL compound was added to each well of the cell plate and incubated for 6 h at 37° C. with 5% CO2 BRD9 expression was quantified using the NanoGlo Lytic Endpoint assay (Promega N3050). The lytic buffer was equilibrated to room temperature for 10-15 min before lytic reagent was prepared by adding substrate (1:50) and LgBit protein (1:100) in lytic buffer. 40 μL lytic reagent mix was added to each well of the cel plate and plates were centrifuged briefly at ˜50g. Plates were incubated with shaking (350 RPM) for 12-24 min before reading using the LUM plus module of a BMG Pherastar FSX. Data was analysed using Dotmatics software and % BRD9 remaining was calculated by normalisation to average data from high and low control wells (DMSO treated cels and no cells respectively).

[2] = biological target: T1, BRD9; assay: Degradation of BRD9 (IF), immunofluorescence in MV4-11 cells, 24 hours (Assay Protocol 2); assay type: cell-based; set-up: A suspension of MV4-11 cells (ATCC CRL-9591) was prepared; host or cells: MV4-11; details: BRD9 degradation; for DC50: Assay protocol 2, read-out: DC50; for Dmax: MV4-11, Assay protocol 2, read-out: Dmax
Summary of the method: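 % BRD9 remaining, scaled between DMSO (high) and 100 nM CFT-8634 (low) control wells, derives from mean Alexa 647 contrast in central nuclei by high-content imaging. MV4-11 cells had 24 h compound exposure at 37° C. before PFA fixation, Triton permeabilisation and anti-BRD9 E4Q3F immunostaining.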

Compound | Dmax at 1 µM ([1]; HEK293) | DC50 [1] | DC50 [2] | Dmax [2] | Dmax ([1]; HEK293, Table 4, determined according to Assay Protocol 1, read-out: Dmax^1)
COc1cc(-c2cn(C)c(=O)c(C)c2C)cc(OC)c1CN1CC2CC(C1)N2C(=O)/C(C#N)=C/c1nccs1 (mixture of isomers) [BRD9l, (E/Z)-2-(3-(2,6-dimethoxy-4-(1,4,5-trimethyl-6-oxo-1,6-dihydropyridin-3-yl)benzyl)-3,6-diazabicyclo[3.1.1]heptane-6-carbonyl)-3-(thiazol-2-yl)acrylonitrile] |  |  |  |  | 50 to 70%
COc1cc(-c2cn(C)c(=O)c3cnccc23)cc(OC)c1CN1CCN(Cc2cccc3c2CCN(C(=O)/C(C#N)=C\c2ccon2)C3C)CC1 (mixture of isomers) [Compound A11, (E/Z)-2-(5-((4-(2,6-dimethoxy-4-(2-methyl-1-oxo-1,2-dihydro-2,7-naphthyridin-4-yl)benzyl)piperazin-1-yl)methyl)-1-methyl-1,2,3,4-tetrahydroisoquinoline-2-carbonyl)-3-(isoxazol-3-yl)acrylonitrile] | 40 to 70% | 1.25 to 10 nM |  |  | 
COc1cc(-c2cn(C)c(=O)c3cnccc23)cc(OC)c1CN1CCN(Cc2cccc3c2CCN(C(=O)/C(C#N)=C\c2ccc(F)cn2)C3C)CC1 (mixture of isomers) [Compound A12, (E/Z)-2-(5-((4-(2,6-dimethoxy-4-(2-methyl-1-oxo-1,2-dihydro-2,7-naphthyridin-4-yl)benzyl)piperazin-1-yl)methyl)-1-methyl-1,2,3,4-tetrahydroisoquinoline-2-carbonyl)-3-(5-fluoropyridin-2-yl)acrylonitrile] | 40 to 70% | 10 to 25 nM |  |  | 
COc1cc(-c2cn(C)c(=O)c3cnccc23)cc(OC)c1CN1CCN(Cc2cccc3c2CCN(C(=O)/C(C#N)=C\c2nc(C)c(C)s2)C3C)CC1 (mixture of isomers) [Compound A13, (E/Z)-2-(5-((4-(2,6-dimethoxy-4-(2-methyl-1-oxo-1,2-dihydro-2,7-naphthyridin-4-yl)benzyl)piperazin-1-yl)methyl)-1-methyl-1,2,3,4-tetrahydroisoquinoline-2-carbonyl)-3-(4,5-dimethylthiazol-2-yl)acrylonitrile] | 40 to 70% | 1.25 to 10 nM |  |  | 
COc1cc(-c2cn(C)c(=O)c3cnccc23)cc(OC)c1CN1CCN(Cc2cccc3c2CCN(C(=O)/C(C#N)=C\C2CCOCC2)C3C)CC1 (mixture of isomers) [Compound A17, (E/Z)-2-(5-((4-(2,6-dimethoxy-4-(2-methyl-1-oxo-1,2-dihydro-2,7-naphthyridin-4-yl)benzyl)piperazin-1-yl)methyl)-1-methyl-1,2,3,4-tetrahydroisoquinoline-2-carbonyl)-3-(tetrahydro-2H-pyran-4-yl)acrylonitrile] | 40 to 70% | 1.25 to 10 nM |  |  | 
COc1cc(-c2cn(C)c(=O)c3cnccc23)cc(OC)c1CN1CCN(Cc2cccc3c2CCN(C(=O)/C(C#N)=C\C(C)C)C3C)CC1 (mixture of isomers) [Compound A19, (E/Z)-2-(5-((4-(2,6-dimethoxy-4-(2-methyl-1-oxo-1,2-dihydro-2,7-naphthyridin-4-yl)benzyl)piperazin-1-yl)methyl)-1-methyl-1,2,3,4-tetrahydroisoquinoline-2-carbonyl)-4-methylpent-2-enenitrile] | 40 to 70% | 1.25 to 10 nM |  |  | 
COc1cc(-c2cn(C)c(=O)c(C)c2C)cc(OC)c1CN1CCN(Cc2cccc3c2CCN(C(=O)/C(C#N)=C/c2nc4ccccc4s2)C3C)CC1 (mixture of isomers) [Compound A20] | > 75% | 1.25 to 10 nM |  |  | 
COc1cc(-c2cn(C)c(=O)c3cnccc23)cc(OC)c1CN1CCN(Cc2cccc3c2CCN(C(=O)/C(C#N)=C\c2ccns2)C3C)CC1 (mixture of isomers) [Compound A23, (E/Z)-2-(5-((4-(2,6-dimethoxy-4-(2-methyl-1-oxo-1,2-dihydro-2,7-naphthyridin-4-yl)benzyl)piperazin-1-yl)methyl)-1-methyl-1,2,3,4-tetrahydroisoquinoline-2-carbonyl)-3-(isothiazol-5-yl)acrylonitrile] | 40 to 70% | 1.25 to 10 nM |  |  | 
COc1cc(-c2cn(C)c(=O)c(C)c2C)cc(OC)c1CN1CCC(COc2ccc3c(c2)[C@H](C)N(C(=O)/C(C#N)=C/C(C)(C)C)CC3)CC1 [Compound C61] |  |  | < 1.25 nM | > 75% | 
COc1cc(-c2cn(C)c(=O)c(C)c2C)cc(OC)c1CN1CCC(Cc2cccc3c2CCN(C(=O)/C(C#N)=C/C(C)(C)C)C3C)C(C)(C)C1 (centres unmarked) [Compound C62] |  |  | 10 to 25 nM | > 75% | 
COc1cc(-c2cn(C)c(=O)c(C)c2C)ccc1OC1CCC(Cc2cccc3c2CCN(C(=O)/C(C#N)=C/C(C)(C)N2CCN(C)CC2)C3C(C)C)CC1 (centres unmarked) [Compound C85] |  |  | 25 to 1000 nM | > 75% | 

Continued, in another order:

Dmax at 1 µM ([1]; HEK293) | DC50 [1] | DC50 [2] | Dmax [2] | Compound | Dmax ([1]; HEK293, Table 4, determined according to Assay Protocol 1, read-out: Dmax^1)
40 to 70% | < 1.25 nM |  |  | COc1cc(-c2cn(C)c(=O)c3cnccc23)cc(OC)c1CN1CCN(Cc2cccc3c2CCN(C(=O)/C(C#N)=C/c2cccc(Br)n2)C3C)CC1 (mixture of isomers) [Compound A5, (E/Z)-3-(6-bromopyridin-2-yl)-2-(5-((4-(2,6-dimethoxy-4-(2-methyl-1-oxo-1,2-dihydro-2,7-naphthyridin-4-yl)benzyl)piperazin-1-yl)methyl)-1-methyl-1,2,3,4-tetrahydroisoquinoline-2-carbonyl)acrylonitrile] | 
> 75% | < 1.25 nM |  |  | COc1cc(-c2cn(C)c(=O)c3cnccc23)cc(OC)c1CN1CCN(Cc2cccc3c2CCN(C(=O)/C(C#N)=C/c2nc4ccccc4s2)C3C)CC1 (mixture of isomers) [Compound A6] | 
40 to 70% | < 1.25 nM |  |  | COc1cc(-c2cn(C)c(=O)c3cnccc23)cc(OC)c1CN1CCN(Cc2cccc3c2CCN(C(=O)/C(C#N)=C\c2nc(C)cs2)C3C)CC1 (mixture of isomers) [Compound A9, (E/Z)-2-(5-((4-(2,6-dimethoxy-4-(2-methyl-1-oxo-1,2-dihydro-2,7-naphthyridin-4-yl)benzyl)piperazin-1-yl)methyl)-1-methyl-1,2,3,4-tetrahydroisoquinoline-2-carbonyl)-3-(4-methylthiazol-2-yl)acrylonitrile] | 
40 to 70% | < 1.25 nM |  |  | COc1cc(-c2cn(C)c(=O)c3cnccc23)cc(OC)c1CN1CCN(Cc2cccc3c2CCN(C(=O)/C(C#N)=C\C(C)(C)CF)C3C)CC1 (mixture of isomers) [Compound A18, (E/Z)-2-(5-((4-(2,6-dimethoxy-4-(2-methyl-1-oxo-1,2-dihydro-2,7-naphthyridin-4-yl)benzyl)piperazin-1-yl)methyl)-1-methyl-1,2,3,4-tetrahydroisoquinoline-2-carbonyl)-5-fluoro-4,4-dimethylpent-2-enenitrile] | 
70 to 75% | < 1.25 nM |  |  | COc1cc(-c2cn(C)c(=O)c(C)c2C)cc(OC)c1CN1CCN(Cc2cccc3c2CCN(C(=O)/C(C#N)=C\c2nc(C)cs2)C3C)CC1 (mixture of isomers) [Compound A21] | 
40 to 70% | < 1.25 nM |  |  | COc1cc(-c2cn(C)c(=O)c3cnccc23)cc(OC)c1CN1CCN(Cc2cccc3c2CCN(C(=O)/C(C#N)=C\C2CCC2)C3C)CC1 (mixture of isomers) [Compound A24, (E/Z)-3-cyclobutyl-2-(5-((4-(2,6-dimethoxy-4-(2-methyl-1-oxo-1,2-dihydro-2,7-naphthyridin-4-yl)benzyl)piperazin-1-yl)methyl)-1-methyl-1,2,3,4-tetrahydroisoquinoline-2-carbonyl)acrylonitrile] | 
> 75% | < 1.25 nM |  |  | COc1cc(-c2cn(C)c(=O)c3cnccc23)cc(OC)c1CN1CCN(Cc2cccc(C3CCCN3C(=O)/C(C#N)=C/c3nccs3)c2)CC1 (mixture of isomers) [Compound A33, (E/Z)-2-(2-(3-((4-(2,6-dimethoxy-4-(2-methyl-1-oxo-1,2-dihydro-2,7-naphthyridin-4-yl)benzyl)piperazin-1-yl)methyl)phenyl)pyrrolidine-1-carbonyl)-3(thiazol-2-yl)acrylonitrile] | 
